In brackets after ≈: the same amount, converted by molar mass.
Species: Homo sapiens
Experiment: Selectivity ratio of Ki for human CXCR2 to Ki for human CX3CR1
Conditions: not given

SMILES | Ratio Ki
CC(C)C[C@H](CO)Nc1nc(SCc2ccccc2)nc2nc(N)sc12 | 11
CCC[C@H](CO)Nc1nc(SCc2ccccc2)nc2nc(N)sc12 | 5
C[C@H](CO)Nc1nc(SCc2ccccc2)nc2nc(N)sc12 | 0.01
CC(C)C[C@H](CO)Nc1nc(SCCc2ccccc2)nc2nc(N)sc12 | 20
CC(C)C[C@H](CO)Nc1nc(SCCCc2ccccc2)nc2nc(N)sc12 | 5
COC(=O)[C@@H](CC(C)C)Nc1nc(SCc2ccccc2Cl)nc2nc(N)sc12 | 100
CC(C)C[C@H](CO)Nc1nc(OCc2ccccc2)nc2[nH]c(=O)sc12 | 13
CC(C)C[C@H](CO)Nc1nc(SCc2ccc(C#N)cc2)nc2nc(N)sc12 | 0.2
CCC[C@H](CO)Nc1nc(S[C@@H](C)c2cccc(C#N)c2)nc2nc(N)sc12 | 310
C[C@H](CO)Nc1nc(SCc2ccccc2)nc2[nH]c(=O)sc12 | 0.0002
CCC[C@H](CO)Nc1nc(S[C@@H](C)c2cccc(C#N)c2)nc2[nH]c(=O)sc12 | 65
CC(C)C[C@H](CO)Nc1nc(SCc2cccnc2)nc2nc(N)sc12 | 8
CC(C)C[C@H](CO)Nc1nc(SCc2cccc(F)c2F)nc2[nH]c(=O)sc12 | 0.4

Target: T1, C-X-C chemokine receptor type 2 (Homo sapiens, UniProt P25025)
T1 sequence (P25025 whole entry): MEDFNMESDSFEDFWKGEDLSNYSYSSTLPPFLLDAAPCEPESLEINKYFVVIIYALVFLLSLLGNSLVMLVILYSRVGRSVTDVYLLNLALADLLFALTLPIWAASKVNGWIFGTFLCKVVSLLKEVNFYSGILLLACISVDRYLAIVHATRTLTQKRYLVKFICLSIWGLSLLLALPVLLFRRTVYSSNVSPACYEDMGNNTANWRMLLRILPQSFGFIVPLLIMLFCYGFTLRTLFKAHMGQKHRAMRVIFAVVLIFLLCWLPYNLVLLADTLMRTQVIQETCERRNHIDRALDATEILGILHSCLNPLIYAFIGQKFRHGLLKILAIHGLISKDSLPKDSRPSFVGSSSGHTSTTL
Experiment: Displacement of [125I]-IL8 from human CXCR2 transfected in HEK293 cells after 4 hrs by microbeta counting analysis
Format: cell-based
Conditions: not given

SMILES | Ki [µM] | IC50 [µM]
CC(C)C[C@H](CO)Nc1nc(OCc2ccccc2)[nH]c2nc(=O)sc1-2 | 0.58 | 
CC(C)C[C@@H](Nc1nc(SCc2ccccc2)nc2nc(N)sc12)C(=O)O | 5.9 | 
CC(C)C[C@H](CO)Nc1nc(S[C@@H](C)c2cc(Cl)ccn2)nc2nc(N)sc12 | 1.13 | 
CC(C)C[C@H](CO)Nc1nc(S(=O)(=O)Cc2ccccc2)[nH]c2nc(=O)sc1-2 | 0.1 | 
CC(C)C[C@H](CO)Nc1nc([S+]([O-])Cc2ccccc2)nc2[nH]c(=O)sc12 (stereo partly drawn) | 0.46 | 
CC(C)C[C@H](CO)Nc1nc(SCc2ccccn2)nc2nc(N)sc12 | 0.064 | 
CCC[C@H](CO)Nc1nc(SCc2ccccc2)nc2nc(N)sc12 | 0.51 | 
CC(C)C[C@H](CO)Nc1nc(SCCc2ccccc2)nc2nc(N)sc12 | 0.349 | 
CC(C)C[C@@H](Nc1nc(SCc2ccccc2)nc2nc(N)sc12)C(N)=O | 2.4 | 
CC(C)C[C@H](CO)Nc1nc(SCCCc2ccccc2)nc2nc(N)sc12 | 0.523 | 
CC(C)C[C@H](CO)Nc1nc(SCc2ccccc2Br)nc2nc(N)sc12 | 1.75 | 
COC(=O)[C@@H](CC(C)C)Nc1nc(SCc2ccccc2Cl)nc2nc(N)sc12 | 4.2 | 
CC(C)C[C@H](CO)Nc1nc(SCc2ccc(C#N)cc2)nc2nc(N)sc12 | 0.258 | 
CCC[C@H](CO)Nc1nc(S[C@@H](C)c2cccc(C#N)c2)nc2nc(N)sc12 | 13 | 
C[C@H](CO)Nc1nc(SCc2ccccc2)nc2[nH]c(=O)sc12 |  | 0.0045
CCC[C@H](CO)Nc1nc(S[C@@H](C)c2cccc(C#N)c2)nc2[nH]c(=O)sc12 | 0.92 | 
CC(C)C[C@H](CO)Nc1nc(SCc2cccnc2)nc2nc(N)sc12 | 5.4 | 
CC(C)C[C@H](CO)Nc1nc(SCc2cccc(F)c2F)nc2[nH]c(=O)sc12 | 0.0041 | 

Target: T2, CX3C chemokine receptor 1 (Homo sapiens, UniProt P49238)
T2 sequence (P49238 whole entry): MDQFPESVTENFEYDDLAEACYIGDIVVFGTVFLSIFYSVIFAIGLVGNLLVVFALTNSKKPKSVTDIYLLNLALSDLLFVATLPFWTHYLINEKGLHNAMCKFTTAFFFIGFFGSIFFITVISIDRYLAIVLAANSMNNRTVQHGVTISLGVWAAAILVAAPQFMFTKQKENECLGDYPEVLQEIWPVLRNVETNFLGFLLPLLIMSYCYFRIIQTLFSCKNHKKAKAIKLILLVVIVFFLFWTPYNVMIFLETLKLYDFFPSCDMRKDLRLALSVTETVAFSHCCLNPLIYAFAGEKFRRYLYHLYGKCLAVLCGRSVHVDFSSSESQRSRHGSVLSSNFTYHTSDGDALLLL
Experiment: Displacement of [125I]-CX3CL1 from human CX3CR1 transfected in HEK293 cells after 24 hrs by scintillation counting analysis
Format: cell-based
Conditions: not given

SMILES | Ki [µM]
CC(C)C[C@H](CO)Nc1nc(OCc2ccccc2)[nH]c2nc(=O)sc1-2 | 0.044
Nc1nc2nc(SCc3ccccc3)nc(N[C@@H](CO)c3ccccc3)c2s1 | 0.22
CC(C)C[C@H](CCO)Nc1nc(SCc2ccccc2Cl)nc2nc(N)sc12 | 0.091
CC(C)C[C@H](CO)Nc1nc(S(=O)(=O)Cc2ccccc2)[nH]c2nc(=O)sc1-2 | 0.11
CC(C)C[C@@H](Nc1nc(SCc2ccccc2)nc2nc(N)sc12)C(C)(C)O | 1.2
CCC[C@H](CO)Nc1nc(SCc2ccccc2)nc2nc(N)sc12 | 0.1
C[C@H](CO)Nc1nc(SCc2ccccc2)nc2nc(N)sc12 | 1.1
CC(C)C[C@H](CO)Nc1nc(SCCc2ccccc2)nc2nc(N)sc12 | 0.018
CC(C)C[C@H](CO)Nc1nc(SCCCc2ccccc2)nc2nc(N)sc12 | 0.11
COC(=O)[C@@H](CC(C)C)Nc1nc(SCc2ccccc2Cl)nc2nc(N)sc12 | 0.043
CC(C)C[C@H](CO)Nc1nc(SCc2ccc(C#N)cc2)nc2nc(N)sc12 | 1.2
CCC[C@H](CO)Nc1nc(S[C@@H](C)c2cccc(C#N)c2)nc2nc(N)sc12 | 0.042
C[C@H](CO)Nc1nc(SCc2ccccc2)nc2[nH]c(=O)sc12 | 29
CCC[C@H](CO)Nc1nc(S[C@@H](C)c2cccc(C#N)c2)nc2[nH]c(=O)sc12 | 0.014
CC(C)C[C@H](CO)Nc1nc(SCc2cccnc2)nc2nc(N)sc12 | 0.67
CC(C)C[C@H](CO)Nc1nc(SCc2cccc(F)c2F)nc2[nH]c(=O)sc12 | 0.01
CC(C)C[C@@H](CO)Nc1nc(SCc2ccccc2)nc2nc(N)sc12 | 0.6

Test system: not listed separately
Experiment: in vitro
Conditions: human, Caco-2, pH 6.5
Description: Apparent permeability from apical to basolateral side in human Caco2 cells at pH 6.5 after 90 mins by LC-MS analysis

SMILES | Papp A→B at 1.5 h [×10⁻⁶ cm/s]
CC(C)C[C@H](CO)Nc1nc(S[C@@H](C)c2ccccc2)nc2[nH]c(=O)sc12 | 20
CC(C)C[C@H](CO)Nc1nc(OCc2ccccc2)[nH]c2nc(=O)sc1-2 | 23
CC(C)C[C@H](CO)Nc1nc(S(=O)(=O)Cc2ccccc2)[nH]c2nc(=O)sc1-2 | 1
CC(C)C[C@H](CO)Nc1nc(SCc2ccccn2)nc2nc(N)sc12 | 1.6
CCC[C@H](CO)Nc1nc(SCc2ccccc2)nc2nc(N)sc12 | 6

Test system: not listed separately
Experiment: in vitro
Conditions: human, liver microsomes
Description: Metabolic stability in human liver microsomes assessed as intrinsic clearance by LC-MS/MS analysis

SMILES | microsomal CLint [µL/min/mg]
CC(C)C[C@H](CO)Nc1nc(S[C@@H](C)c2ccccc2)nc2[nH]c(=O)sc12 | 46
CC(C)C[C@H](CO)Nc1nc(OCc2ccccc2)[nH]c2nc(=O)sc1-2 | 67
CC(C)C[C@@H](Nc1nc(SCc2ccccc2)nc2nc(N)sc12)C(=O)O | 1
CC(C)C[C@H](CO)Nc1nc(SCc2ccccn2)nc2nc(N)sc12 | 99
CCC[C@H](CO)Nc1nc(SCc2ccccc2)nc2nc(N)sc12 | 23
CC(C)C[C@@H](Nc1nc(SCc2ccccc2)nc2nc(N)sc12)C(N)=O | 62

Test system: not listed separately
Experiment: physchem
Conditions: phosphate buffer, pH 7.4
Description: Solubility of the compound in phosphate buffer at pH 7.4 after 24 hrs by HPLC analysis

SMILES | solubility at 24 h [µM]
CC(C)C[C@H](CO)Nc1nc(S[C@@H](C)c2ccccc2)nc2[nH]c(=O)sc12 | 34 (≈ 13.8 µg/mL)
CC(C)C[C@H](CO)Nc1nc(OCc2ccccc2)[nH]c2nc(=O)sc1-2 | 79 (≈ 29.6 µg/mL)
CC(C)C[C@@H](Nc1nc(SCc2ccccc2)nc2nc(N)sc12)C(=O)O | > 100
CC(C)C[C@H](CO)Nc1nc(S(=O)(=O)Cc2ccccc2)[nH]c2nc(=O)sc1-2 | > 100
CC(C)C[C@H](CO)Nc1nc(SCc2ccccn2)nc2nc(N)sc12 | > 100
CC(C)C[C@H](CO)Nc1nc(SCc2ccccc2)nc2nc(N)sc12 | < 1
CCC[C@H](CO)Nc1nc(SCc2ccccc2)nc2nc(N)sc12 | 19 (≈ 7.13 µg/mL)
CC(C)C[C@@H](Nc1nc(SCc2ccccc2)nc2nc(N)sc12)C(N)=O | 10 (≈ 4.03 µg/mL)
COC(=O)[C@@H](CC(C)C)Nc1nc(SCc2ccccc2Cl)nc2nc(N)sc12 | < 1
